Reference: publication PMC10739329, “Correlation of bioactive marker compounds of an orally applied Morus alba root bark extract with toxicity and efficacy in BALB/c mice” (Frontiers in Pharmacology, 2023)
Several values for one entry are separate records, joined by “and”; a condition that tells them apart may be missing. Equal entries are not always repeated. Where two headings read alike, the source gives them in different places.

Tests used:
[1] = in vivo; cited from earlier work
[2] = MS/MS search for metabolites of sanggenons C and D in serum samples; format: in vivo, BALB/c mice
Protocol: In the present study, concentration of bioactive sanggenons C and D was determined in serum and tissue samples and correlated with the administered the doses of MA60. […] Already during dose finding and acute toxicity studies, a high variation in serum concentrations of the selected marker compounds was detected within all three dose groups (30, 100, and 300 mg/kg). No dose dependency could be observed regarding the serum concentrations. This might be due to i) inhomogeneities in the CMC suspension of the MA60 extract, ii) the inter-individual differences in the resorption of sanggenons, or iii) the formation of sanggenon metabolites: • (i) For oral gavage administration, MA60 was suspended in 0.3% carboxymethyl cellulose (CMC) as vehicle. This is based on literature data, where even a higher dose of up to 400 mg/kg of a 70% EtOH extract of M. alba root bark ([Lim et al., 2013]) was previously administered to mice per gavage feeding. […] In the present study, an MS/MS analysis was conducted to also search for metabolites of the selected marker compounds sanggenon C and sanggenon D. The search included (di)glucuronides and hydroxylated metabolites as well as further conjugates such as sulfated metabolites.

[3] = UPLC-ESI-MS quantitation of sanggenons C and D in serum and tissue samples, acute toxicity study; format: in vivo, BALB/c mice; conditions: for concentration at 3 h: BALB/c, mouse, serum, oral; for serum concentration: one (efficacy study) and three (acute toxicity study) hours after the last oral MA60 administration
[4] = MA60 30 mg/kg oral, samples 26-30 in order, 3 h after last treatment
[5] = MA60 100 mg/kg oral, samples 31-35 in order, 3 h after last treatment
[6] = MA60 300 mg/kg oral, samples 36-40 in order, 3 h after last treatment
[7] = MA60 100 mg/kg oral once daily for seven days, samples 68-71 in order, sacrificed 24 h after last application

C=C(C)[C@H](CC=C(C)C)Cc1c(O)cc(OC)c(C(=O)/C=C/c2ccc(O)cc2O)c1O [kuraridin]
metabolites found in rat serum [1]: mono- and di-glucuronides as well as hydroxylated derivatives

CC(C)=CC[C@]12Oc3cc(O)c([C@H]4C=C(C)C[C@H](c5ccc(O)cc5O)[C@H]4C(=O)c4ccc(O)cc4O)c(O)c3C(=O)[C@@]1(O)Oc1cc(O)ccc12 [sanggenon C]
metabolites ((di)glucuronides, hydroxylated, sulfated conjugates) in serum samples ([2]; mouse, in vivo, po): neither the corresponding masses nor the phase-II-conjugates could be detected | concentration at 3 h ([3]; 30 mg/kg, MA60 30 mg/kg oral once daily 7 days, 3 h after last treatment, read-out: amount of sanggenon C in serum (dose group)): < 9.1 ng/mL | concentration at 3 h ([3]; 30 mg/kg, MA60 30 mg/kg oral, samples 26-30 in order, 3 h after last treatment, read-out: quantified amount of sanggenon C serum, individual samples): 4.97 ng/mL | concentration at 3 h ([3]; 100 mg/kg, MA60 100 mg/kg oral once daily 7 days, 3 h after last treatment, read-out: amount of sanggenon C in serum (dose group)): 7.94 to 31.5 ng/mL | concentration at 3 h ([3]; 300 mg/kg, MA60 300 mg/kg oral once daily 7 days, 3 h after last treatment, read-out: amount of sanggenon C in serum (dose group)): 21.2 to 227 ng/mL | concentration at 3 h ([3]; mice sacrificed 3 hours after the last application, read-out: average serum concentration of sanggenon C): < 2 ng/mL | quantified amount of sanggenon C serum, individual samples [3, 4]: n.f. (3×) and 9.10 ng/mL | quantified amount of sanggenon C serum, individual samples [3, 5]: 7.94 ng/mL and 9.28 ng/mL and 31.53 ng/mL and 11.17 ng/mL and 13.02 ng/mL | quantified amount of sanggenon C serum, individual samples [3, 6]: 25.74 ng/mL and 21.21 ng/mL and 227.26 ng/mL and 24.13 ng/mL and 103.00 ng/mL | serum concentration [3]: less than 1% | serum concentrations of sanggenon C (group) (MA60 100 mg/kg oral, after 24 h (#68-#71), below this value or not detectable): below 2.77 ng/mL

sanggenon D
metabolites ((di)glucuronides, hydroxylated, sulfated conjugates) in serum samples ([2]; MS/MS analysis after oral MA60): neither the corresponding masses nor the phase-II-conjugates could be detected | quantified amount of sanggenon D liver, individual samples [3, 4]: n.f. | quantified amount of sanggenon D lung, individual samples [3, 4]: n.f. (4×) and 1,005.12 ng/mL | quantified amount of sanggenon D liver, individual samples [3, 5]: n.f. and 34.18 ng/mL and 26.97 ng/mL | quantified amount of sanggenon D lung, individual samples [3, 5]: n.f. (2×) and 2,980.27 ng/mL and 343.27 ng/mL and 10,306.71 ng/mL | quantified amount of sanggenon D liver, individual samples [3, 6]: 70.13 ng/mL and 89.18 ng/mL and 979.27 ng/mL and 996.87 ng/mL and 447.53 ng/mL | quantified amount of sanggenon D lung, individual samples [3, 6]: n.f. | sanggenon D concentration in liver tissues ([3]; high dose group (300 mg/kg), #38 and #39): ~1 µg/mL | sanggenon D in liver samples ([3]; low dose group (MA60 30 mg/kg oral)): not detected | serum concentration [3]: less than 1% | quantified amount of sanggenon D liver, individual samples [7]: n.f. | quantified amount of sanggenon D lung, individual samples [7]: n.f. | sanggenon D in liver (MA60 100 mg/kg oral, after 24 h): could not be determined | sanggenon D in liver (MA60 100 mg/kg oral, mice sacrificed after 1 h): high amount | quantified amount of sanggenon D lung, individual samples (MA60 100 mg/kg oral, samples 64-67 in order, sacrificed 1 h after treatment): n.f.
